Measurements taken from ChEMBL document CHEMBL1201862, “PubChem BioAssay data set” (2004).
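Five concentrations, 48 hours, 96-well plates. Abbreviation: GI50, concentration required for 50% inhibition of growth.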 Activity calls are given as the source filed them. Rule as the data show it: active = GI50 up to about 1.1 µM and inactive = higher.

Columns and labels:
Assay in all cases: growth of human tumour cells (NCI), 48 h
MCF7 = tested on: MCF7
UACC-257 = tested on: UACC-257
SNB-19 = tested on: SNB-19
HCT-15 = tested on: HCT-15
SK-OV-3 = tested on: SK-OV-3
NCI-H226 = tested on: NCI-H226
SK-MEL-5 = tested on: SK-MEL-5
UO-31 = tested on: UO-31
HL-60 = tested on: HL-60
RXF 393 = tested on: RXF 393
CAKI-1 = tested on: CAKI-1
NCI-H23 = tested on: NCI-H23
LOX IMVI = tested on: LOX IMVI
IGROV-1 = tested on: IGROV-1
BT-549 = tested on: BT-549
SF-295 = tested on: SF-295
MDA-MB-435 = tested on: MDA-MB-435
CCRF-CEM = tested on: CCRF-CEM
SF-268 = tested on: SF-268
SF-539 = tested on: SF-539
OVCAR-5 = tested on: OVCAR-5
NCI/ADR-RES = tested on: NCI/ADR-RES
MDA-MB-231 = tested on: MDA-MB-231
DU-145 = tested on: DU-145
OVCAR-8 = tested on: OVCAR-8
Hs-578T = tested on: Hs-578T
NCI-H522 = tested on: NCI-H522
RPMI-8226 = tested on: RPMI-8226
PC-3 = tested on: PC-3
OVCAR-3 = tested on: OVCAR-3
Malme-3M = tested on: Malme-3M
HCT-116 = tested on: HCT-116
COLO 205 = tested on: COLO 205
NCI-H460 = tested on: NCI-H460
MDA-N = tested on: MDA-N
HT-29 = tested on: HT-29
SNB-75 = tested on: SNB-75
MOLT-4 = tested on: MOLT-4
U-251 = tested on: U-251
EKVX = tested on: EKVX
UACC-62 = tested on: UACC-62
SK-MEL-28 = tested on: SK-MEL-28
A549 = tested on: A549
HOP-62 = tested on: HOP-62
TK-10 = tested on: TK-10
KM12 = tested on: KM12
K562 = tested on: K562
OVCAR-4 = tested on: OVCAR-4
SW-620 = tested on: SW-620
SK-MEL-2 = tested on: SK-MEL-2
M14 = tested on: M14
786-0 = tested on: 786-0
ACHN = tested on: ACHN
SN12C = tested on: SN12C
HCC 2998 = tested on: HCC 2998
T47D = tested on: T47D
SR = tested on: SR
A498 = tested on: A498

SMILES: COC1OC2COC(=O)c3cc(O)c(O)c(O)c3-c3c(cc(O)c(O)c3O)C(=O)OC2C(O)C1O (centres undefined)
- GI50 (MCF7): 42.6 µM (inactive)
- GI50 (UACC-257): > 100 µM (inactive)
- GI50 (SNB-19): > 100 µM (inactive)
- GI50 (HCT-15): > 100 µM
- GI50 (SK-OV-3): > 100 µM (inactive)
- GI50 (NCI-H226): > 100 µM (inactive)
- GI50 (SK-MEL-5): 84.7 µM (inactive)
- GI50 (UO-31): > 100 µM (inactive)
- GI50 (HL-60): > 10 µM (inactive)
- GI50 (RXF 393): > 100 µM (inactive)
- GI50 (CAKI-1): 63.8 µM (inactive)
- GI50 (NCI-H23): > 100 µM (inactive)
- GI50 (LOX IMVI): 23.2 µM (inactive)
- GI50 (IGROV-1): > 100 µM (inactive)
- GI50 (BT-549): > 100 µM (inactive)
- GI50 (SF-295): 18.9 µM (inactive)
- GI50 (MDA-MB-435): 30.5 µM (inactive)
- GI50 (CCRF-CEM): 37.3 µM (inactive)
- GI50 (SF-268): 64 µM (inactive)
- GI50 (SF-539): > 100 µM (inactive)
- GI50 (OVCAR-5): 53.8 µM (inactive)
- GI50 (NCI/ADR-RES): > 100 µM (inactive)
- GI50 (MDA-MB-231): > 100 µM (inactive)
- GI50 (DU-145): > 100 µM (inactive)
- GI50 (OVCAR-8): 54.1 µM (inactive)
- GI50 (Hs-578T): > 100 µM (inactive)
- GI50 (NCI-H522): 94.8 µM (inactive)
- GI50 (RPMI-8226): 55.7 µM (inactive)
- GI50 (PC-3): > 100 µM (inactive)
- GI50 (OVCAR-3): 80 µM (inactive)
- GI50 (Malme-3M): > 100 µM (inactive)
- GI50 (HCT-116): 34.9 µM (inactive)
- GI50 (COLO 205): 54.1 µM (inactive)
- GI50 (NCI-H460): 45.3 µM (inactive)
- GI50 (MDA-N): 24 µM (inactive)
- GI50 (HT-29): 34.4 µM (inactive)
- GI50 (SNB-75): 62.8 µM (inactive)
- GI50 (MOLT-4): 28.6 µM (inactive)
- GI50 (U-251): 61.2 µM (inactive)
- GI50 (EKVX): > 100 µM (inactive)
- GI50 (UACC-62): 21.4 µM (inactive)
- GI50 (SK-MEL-28): > 100 µM (inactive)
- GI50 (A549): 72.6 µM (inactive)
- GI50 (HOP-62): 53 µM (inactive)
- GI50 (TK-10): > 100 µM (inactive)
- GI50 (KM12): > 100 µM (inactive)
- GI50 (K562): 36.4 µM (inactive)
- GI50 (OVCAR-4): 31.5 µM (inactive)
- GI50 (SW-620): 21.7 µM (inactive)
- GI50 (SK-MEL-2): 84.5 µM (inactive)
- GI50 (M14): 43.9 µM (inactive)
- GI50 (786-0): 47.4 µM (inactive)
- GI50 (ACHN): 77.8 µM (inactive)
- GI50 (SN12C): 16.5 µM (inactive)

SMILES: Cc1cc(S(=O)(=O)[N-]/C(=N/S(=O)(=O)c2ccc(Cl)cc2)[n+]2ccc(N(C)C)cc2)c(S)cc1Cl
- GI50 (MCF7): 47.9 µM (inactive)
- GI50 (UACC-257): > 100 µM (inactive)
- GI50 (HCC 2998): > 100 µM (inactive)
- GI50 (HCT-15): 75.7 µM
- GI50 (SK-OV-3): 41.2 µM (inactive)
- GI50 (NCI-H226): 33.8 µM (inactive)
- GI50 (SK-MEL-5): > 100 µM (inactive)
- GI50 (UO-31): 79.4 µM (inactive)
- GI50 (HL-60): 34.8 µM (inactive)
- GI50 (RXF 393): 84.1 µM (inactive)
- GI50 (CAKI-1): > 100 µM (inactive)
- GI50 (NCI-H23): > 100 µM (inactive)
- GI50 (LOX IMVI): > 100 µM (inactive)
- GI50 (IGROV-1): > 100 µM (inactive)
- GI50 (SF-295): 40.2 µM (inactive)
- GI50 (MDA-MB-435): > 100 µM (inactive)
- GI50 (T47D): > 100 µM (inactive)
- GI50 (CCRF-CEM): 46.2 µM (inactive)
- GI50 (SF-268): 89.9 µM (inactive)
- GI50 (SF-539): 83.4 µM (inactive)
- GI50 (OVCAR-5): 61.5 µM (inactive)
- GI50 (NCI/ADR-RES): > 100 µM (inactive)
- GI50 (MDA-MB-231): > 100 µM (inactive)
- GI50 (DU-145): > 100 µM (inactive)
- GI50 (OVCAR-8): > 100 µM (inactive)
- GI50 (Hs-578T): 54.8 µM (inactive)
- GI50 (NCI-H522): 28.7 µM (inactive)
- GI50 (RPMI-8226): 48 µM (inactive)
- GI50 (PC-3): 54 µM (inactive)
- GI50 (OVCAR-3): 56.1 µM (inactive)
- GI50 (HCT-116): 20.5 µM (inactive)
- GI50 (NCI-H460): 48.3 µM (inactive)
- GI50 (MDA-N): > 100 µM (inactive)
- GI50 (HT-29): 44.6 µM (inactive)
- GI50 (MOLT-4): 0.656 µM (active)
- GI50 (U-251): 47 µM (inactive)
- GI50 (EKVX): > 100 µM (inactive)
- GI50 (SR): < 0.01 µM (active)
- GI50 (SK-MEL-28): > 100 µM (inactive)
- GI50 (A498): 26.4 µM (inactive)
- GI50 (HOP-62): 43.5 µM (inactive)
- GI50 (TK-10): 49.2 µM (inactive)
- GI50 (KM12): > 100 µM (inactive)
- GI50 (K562): 1.92 µM (inactive)
- GI50 (OVCAR-4): 55.5 µM (inactive)
- GI50 (SW-620): 58.3 µM (inactive)
- GI50 (SK-MEL-2): > 100 µM (inactive)
- GI50 (M14): 35.3 µM (inactive)
- GI50 (786-0): > 100 µM (inactive)
- GI50 (ACHN): > 100 µM (inactive)
